Experiments:
retinas of diabetic mice = assay: Vascular leakage in retina of diabetic mice (fluorescein angiography, FITC-dextran); type: in vivo, mouse; conditions: for vascular leakage in diabetic retina (FITC-dextran extravasation): diabetic mice, intravitreal 2 μl 50 mM cystamine or 20 mM MDC, after 24 hrs, p<0.001, n=8; for increase of vascular leakage in retinas of diabetic mice: intravitreal injection, 0.5 mM dopamine, 500 mM cysteamine, n=6
Method: Two weeks after streptozotocin injection, diabetic mice were intravitreally injected with 2 μl of TGase inhibitors (50 mM cystamine or 20 mM MDC), 1 μM C-peptide (American Peptide Company, Sunnyvale, Calif.), ROS scavengers (2 μM Trolox or 500 mM NAC), or 65 μM mouse TG2-specific siRNA (Dharmacon, Lafayette, Colo.) into one eye and an equal volume of PBS or mouse control siRNA (Dharmacon, Lafayette, Colo.) into the contralateral eye. Non-diabetic mice were also intravitreally injected with 2 μl of PBS or mouse control siRNA into the eyes. After 24 hrs for inhibitors or C-peptide or 48 hrs for mouse TGase2 siRNA, mice were subjected to measurement of in-vivo TGase activity and vascular leakage from the retina.
Microvascular leakage in mouse retina was investigated via the fluorescein angiography method as previously described. In brief, 24 hrs or 48 hrs after intravitreal injection of TGase2 inhibitors or mouse TGase2 siRNA, respectively, mice were deeply anaesthetized and 1.25 mg of 500 kDa FITC-dextran (Sigma) was injected into the left ventricle. The dye was allowed to circulate for 5 min and mice were sacrificed via cervical dislocation. The eyes were enucleated and immediately fixed with 4% paraformaldehyde for 45 min. Retinas were dissected in the Maltese cross-configuration and flat-mounted onto glass slides. The superficial vessels of the retinas (n=8 per group) were observed by confocal microscopy and vascular leakage was quantitatively analyzed using the Fluoview software by determining the fluorescence intensities of FITC-dextran extravasated from the retina vessel.
Six-week-old male C57BL/6 mice were obtained from KOATECH (Pyeongtaek, Korea). TGase2^−/− mice (C57BL/6) were prepared by disrupting exons 5 and 6 of TGase2 by homologous recombination, as previously described. Diabetic mice were generated by a single intraperitoneal injection of streptozotocin (150 mg/kg body weight, Sigma) freshly prepared in 100 mM citrate buffer (pH 4.5) as previously described. Mice with non-fasting blood glucose levels greater than 19 mM, polyuria and glucosuria were considered diabetic. Experiments were performed in strict accordance with the guidelines of the Institutional Animal Care and Use Ethics Committee of Kangwon National University.
(A, B) Streptozotocin-diabetic mice were intravitreally injected with PBS (diabetic), cystamine (diabetic+Cys) or MDC (diabetic+MDC) into the eyes. Non-diabetic mice were also intravitreally injected with PBS into eyes (normal). […] (B) Retina permeability was quantified by measuring the fluorescence intensities of FITC-dextran in (A). […]
Dopamine and cysteamine were intravitreally injected into mouse eyes, and diabetic retinas were then analyzed for vascular leakage through fluorescein angiography.

HRECs = assay: Visualization of actin filaments (stress fiber formation) in HRECs; type: cell-based, human; conditions: for VEGF-activated stress fiber formation: HRECs, 50 μM cystamine or 20 μM MDC 30 min, 10 ng/ml VEGF; for VEGF-induced stress fiber formation: summary statement, conditions not given
Method: Actin filaments and VE-cadherin were visualized as previously described. For visualization of actin filaments, cells were treated with 10 ng/ml VEGF for 1 hr at 37° C., fixed with 3.7% formaldehyde, and permeabilized with 0.2% Triton X-100. […] For visualization of VE-cadherin, cells were preincubated with the TGase2 inhibitors for 30 min and treated with 10 ng/ml VEGF for 90 min at 37° C. Following fixation and permeabilization, cells were incubated overnight with a monoclonal anti-VE-cadherin antibody (1:200, Santa Cruz Biotechnology) at 4° C. Cells were then probed with an FITC-conjugated goat anti-mouse antibody (1:200, Sigma) and VE-cadherin was visualized using confocal microscopy. Adherens junctions are represented by histograms of VE-cadherin as indicated by dotted lines and were quantitatively analyzed using peak fluorescence intensities of the histograms at the single-cell level for 10 randomly selected cells per experiment.
(A-C) HRECs were preincubated with 50 μM cystamine (Cys) and 20 μM MDC for 30 min and treated with 10 ng/ml VEGF. Stress fibers and VE-cadherin were stained and visualized by confocal microscopy as described in Research Design and Methods (n=3) ((A) Representative images of stress fibers. Scale Bar, 30 μm. (B) Representative images of VE-cadherin. Scale Bar, 10 μm). Adherens junctions are represented by histograms of VE-cadherin as indicated by dotted lines. (C) Adherens junctions were quantitatively analyzed using the peak fluorescence intensities of the histograms at the single-cell level. The results are expressed as mean±SD from three independent trials. (D) In-vitro endothelial cell monolayer permeability assay. HRECs on inserts of Transwell® Permeable Supports were incubated with 50 μM cystamine and 20 μM MDC for 30 min and treated with 10 ng/mL VEGF for 90 min. The amount of FITC-dextran that diffused to the lower chamber was measured by a microplate spectrofluorometer (n=3) (**p<0.01).
HRECs were transfected with 100 nM human TGase2-specific siRNA (TGase2 siRNA) or 100 nM control (Ctrl) siRNA. Endothelial cells were treated with 10 ng/ml VEGF and subjected to the confocal microscopic visualization of stress fibers (A) and VE-cadherin (B), as described in Research Design and Methods (n=3). (A) TGase2 siRNA inhibition of VEGF-induced formation of stress fibers. Scale bar, 30 μm. (B) Representative images of VE-cadherin and adherens junctions represented by VE-cadherin histograms. Scale bar, 10 μm. (C) Adherens junctions were quantitatively analyzed using peak fluorescence intensities of the histograms at the single-cell level. Results are expressed as mean±SD from three independent experiments (***p<0.001).

| SMILES | vascular leakage in diabetic retina (FITC-dextran extravasation) (retinas of diabetic mice) | VEGF-activated stress fiber formation (HRECs) | increase of vascular leakage in retinas of diabetic mice (retinas of diabetic mice) | VEGF-induced stress fiber formation (HRECs) |
| --- | --- | --- | --- | --- |
| CN(C)c1cccc2c(S(=O)(=O)NCCCCCN)cccc12 [MDC, monodansylcadaverine] | prevented | prevented | – | – |
| NCCSSCCN [cystamine] | prevented | prevented | – | – |
| NCCS [cysteamine] | – | – | inhibited | prevented |
| NCCc1ccc(O)c(O)c1 [dopamine] | – | – | inhibited | prevented |
